# Calls of active or inactive are those of the source. No cut-off for these calls is given here.
# Columns and labels:
# Eca-109/VCR [1] = test: Antiproliferative activity against human Eca-109/VCR cells assessed as cell viability at 5 uM incubated for 48 hrs by CCK-8 assay (reference value: 100 +/- 1.8%); format: functional; conditions: read-out: Activity
# Eca-109/VCR [2] = test: Reversal of vincristine resistance in human Eca-109/VCR cells assessed as reversal fold by measuring ratio of vincristine IC50 to vincristine IC50 in presence of test compound at 5 uM incubated for 48 hrs by CCK8 assay; format: functional
# Eca-109/VCR [3] = test: Antiproliferative activity against human Eca-109/VCR cells assessed as reduction in cell viability at 10 uM incubated for 48 hrs by CCK-8 assay; format: functional, cell-based
# Eca-109/VCR [4] = test: Inhibition of colony formation in human Eca-109/VCR cells at 0 to 2 uM incubated for 48 hrs by crystal violet staining based assay; format: functional, cell-based; conditions: dose 0-2 µM
# Eca-109/VCR [5] = test: Inhibition of colony formation in human Eca-109/VCR cells assessed as reduction in number of colonies incubated for 48 hrs in presence of vincristine by crystal violet staining based assay; format: functional, cell-based; conditions: dose 0-2 µM
# Eca-109/VCR [6] = test: Induction of apoptosis in human Eca-109/VCR cells assessed as viable cells at 1 uM incubated for 48 hrs by Annexin V-FITC/DAPI staining based flow cytometry analysis (reference value: 94.6 %); format: functional; conditions: read-out: Activity
# Eca-109/VCR [7] = test: Induction of apoptosis in human Eca-109/VCR cells assessed as early apoptotic cells at 1 uM incubated for 48 hrs by Annexin V-FITC/DAPI staining based flow cytometry analysis (reference value: 0.97 %); format: functional
# Eca-109/VCR [8] = test: Induction of apoptosis in human Eca-109/VCR cells assessed as late apoptotic cells at 1 uM incubated for 48 hrs by Annexin V-FITC/DAPI staining based flow cytometry analysis (reference value: 4.31 %); format: functional
# Eca-109/VCR [9] = test: Induction of apoptosis in human Eca-109/VCR cells assessed as necrotic cells at 1 uM incubated for 48 hrs by Annexin V-FITC/DAPI staining based flow cytometry analysis (reference value: 0.073 %); format: functional
# Eca-109/VCR [10] = test: Induction of apoptosis in human Eca-109/VCR cells assessed as viable cells at 5 uM incubated for 48 hrs by Annexin V-FITC/DAPI staining based flow cytometry analysis (reference value: 94.6 %); format: functional; conditions: read-out: Activity
# Eca-109/VCR [11] = test: Induction of apoptosis in human Eca-109/VCR cells assessed as early apoptotic cells at 5 uM incubated for 48 hrs by Annexin V-FITC/DAPI staining based flow cytometry analysis (reference value: 0.97 %); format: functional
# Eca-109/VCR [12] = test: Induction of apoptosis in human Eca-109/VCR cells assessed as late apoptotic cells at 5 uM incubated for 48 hrs by Annexin V-FITC/DAPI staining based flow cytometry analysis (reference value: 4.31 %); format: functional
# Eca-109/VCR [13] = test: Induction of apoptosis in human Eca-109/VCR cells assessed as necrotic cells at 5 uM incubated for 48 hrs by Annexin V-FITC/DAPI staining based flow cytometry analysis (reference value: 0.073 %); format: functional
# Eca-109/VCR [14] = test: Induction of apoptosis in human Eca-109/VCR cells assessed as viable cells at 1 uM incubated for 48 hrs in presence of vincristine at 50 nM by Annexin V-FITC/DAPI staining based flow cytometry analysis (reference value: 93.5 %); format: functional; conditions: read-out: Activity
# Eca-109/VCR [15] = test: Induction of apoptosis in human Eca-109/VCR cells assessed as early apoptotic cells at 1 uM incubated for 48 hrs in presence of vincristine at 50 nM by Annexin V-FITC/DAPI staining based flow cytometry analysis (reference value: 1.33 %); format: functional
# Eca-109/VCR [16] = test: Induction of apoptosis in human Eca-109/VCR cells assessed as late apoptotic cells at 1 uM incubated for 48 hrs in presence of vincristine at 50 nM by Annexin V-FITC/DAPI staining based flow cytometry analysis (reference value: 5.06 %); format: functional
# Eca-109/VCR [17] = test: Induction of apoptosis in human Eca-109/VCR cells assessed as necrotic cells at 1 uM incubated for 48 hrs in presence of vincristine at 50 nM by Annexin V-FITC/DAPI staining based flow cytometry analysis (reference value: 0.062 %); format: functional
# Eca-109/VCR [18] = test: Induction of apoptosis in human Eca-109/VCR cells assessed as viable cells at 5 uM incubated for 48 hrs in presence of vincristine at 50 nM by Annexin V-FITC/DAPI staining based flow cytometry analysis (reference value: 93.5 %); format: functional; conditions: read-out: Activity
# Eca-109/VCR [19] = test: Induction of apoptosis in human Eca-109/VCR cells assessed as early apoptotic cells at 5 uM incubated for 48 hrs in presence of vincristine at 50 nM by Annexin V-FITC/DAPI staining based flow cytometry analysis (reference value: 1.33 %); format: functional
# Eca-109/VCR [20] = test: Induction of apoptosis in human Eca-109/VCR cells assessed as late apoptotic cells at 5 uM incubated for 48 hrs in presence of vincristine at 50 nM by Annexin V-FITC/DAPI staining based flow cytometry analysis (reference value: 5.06 %); format: functional
# Eca-109/VCR [21] = test: Induction of apoptosis in human Eca-109/VCR cells assessed as necrotic cells at 5 uM incubated for 48 hrs in presence of vincristine at 50 nM by Annexin V-FITC/DAPI staining based flow cytometry analysis (reference value: 0.062 %); format: functional
# Eca-109/VCR [22] = test: Effect on ABCG2 protein expression in human Eca-109/VCR cells at 5 to 10 uM incubated for 24 hrs by Western blotting analysis; format: functional, cell-based; conditions: dose 5-10 µM
# Eca-109/VCR [23] = test: Reversal of vincristine resistance in human Eca-109/VCR cells assessed as effect on P-gp protein expression at 5 to 10 uM incubated for 24 hrs by Western blotting analysis; format: functional, cell-based; conditions: dose 5-10 µM
# Eca-109/VCR [24] = test: Effect on MRP1 protein expression in human Eca-109/VCR cells at 5 to 10 uM incubated for 24 hrs by Western blotting analysis; format: functional, cell-based; conditions: dose 5-10 µM
# [25] = Reversal of vincristine resistant in human Eca-109/VCR cells assessed as reversal fold by measuring ratio of mitoxantrone IC50 to mitoxantrone IC50 in presence of test compound at 5 uM incubated for 48 hrs by CCK8 assay; format: functional
# [26] = Reversal of vincristine resistant in human Eca-109/VCR cells assessed as reversal fold by measuring ratio of colchicine IC50 to colchicine IC50 in presence of test compound at 5 uM incubated for 48 hrs by CCK8 assay; format: functional
# [27] = Reversal of vincristine resistant in human Eca-109/VCR cells assessed as reversal fold by measuring ratio of docetaxel IC50 to docetaxel IC50 in presence of test compound at 5 uM incubated for 48 hrs by CCK8 assay; format: functional
# [28] = Reversal of vincristine resistant in human Eca-109/VCR cells assessed as reversal fold by measuring ratio of doxorubicin IC50 to doxorubicin IC50 in presence of test compound at 5 uM incubated for 48 hrs by CCK8 assay; format: functional
# [29] = Reversal of vincristine resistant in human Eca-109/VCR cells assessed as reversal fold by measuring ratio of lapatinib IC50 to lapatinib IC50 in presence of test compound at 5 uM incubated for 48 hrs by CCK8 assay; format: functional
smiles,measurement,setting,value
CN1C(=O)[C@@]2(c3cc(Cl)ccc31)[C@H](C(=O)NC(C)(C)C)[C@H]1c3ccc([N+](=O)[O-])cc3C(=O)[C@H]1[C@@H]2c1ccccc1,viability at 5 µM,Eca-109/VCR [1],98.9%
same,Ratio IC50,Eca-109/VCR [2],727.2
same,Activity,Eca-109/VCR [3],inactive
same,inhibition,Eca-109/VCR [4],inactive
same,inhibition,Eca-109/VCR [5],Dose-Dependent Effect
same,viability at 1 µM,Eca-109/VCR [6],93.9%
same,Activity,Eca-109/VCR [7],1.27%
same,Activity,Eca-109/VCR [8],4.73%
same,Activity,Eca-109/VCR [9],0.082%
same,viability at 5 µM,Eca-109/VCR [10],94.6%
same,Activity,Eca-109/VCR [11],1.19%
same,Activity,Eca-109/VCR [12],4.19%
same,Activity,Eca-109/VCR [13],0.064%
same,viability at 1 µM,Eca-109/VCR [14],91.3%
same,Activity,Eca-109/VCR [15],0.99%
same,Activity,Eca-109/VCR [16],7.54%
same,Activity,Eca-109/VCR [17],0.15%
same,viability at 5 µM,Eca-109/VCR [18],77.5%
same,Activity,Eca-109/VCR [19],17.9%
same,Activity,Eca-109/VCR [20],4.28%
same,Activity,Eca-109/VCR [21],0.31%
same,Activity,Eca-109/VCR [22],inactive
same,Activity,Eca-109/VCR [23],inactive
same,Activity,Eca-109/VCR [24],inactive
same,Ratio IC50,[25],12
same,Ratio IC50,[26],139.7
same,Ratio IC50,[27],313.8
same,Ratio IC50,[28],121
same,Ratio IC50,[29],1.4
